Data: ChEMBL document CHEMBL4480398, “1,2,4-Triazolo[1,5-a]pyrimidines in drug design” (Eur J Med Chem, 2019)
Converted amounts (≈) assume the structure as drawn. Blank lines part the entries; values can stand above or below the molecule they belong to.

Tests used:
[1] = Protein binding in human plasma by ultracentrifugation method; assay type: ADME, cell-free
[2] = Aqueous solubility of compound; assay type: physicochemical; conditions: buffer
[3] = Intrinsic clearance in human liver microsomes assessed per mg protein by LC-MS analysis; assay type: ADME, Microsome; conditions: read-out: CLH
[4] = Intrinsic clearance in mouse liver microsomes assessed per mg protein by LC-MS analysis; assay type: ADME, Microsome; conditions: read-out: CLH
[5] = Inhibition of Plasmodium falciparum DHODH expressed in Escherichia coli by DCIP staining-based spectrophotometric analysis
[6] = biological target: Dihydroorotate dehydrogenase (quinone), mitochondrial (Homo sapiens, UniProt Q02127); assay: Inhibition of human DHODH expressed in Escherichia coli by DCIP staining-based spectrophotometric analysis
Dihydroorotate dehydrogenase (quinone), mitochondrial, sequence (Q02127 whole entry): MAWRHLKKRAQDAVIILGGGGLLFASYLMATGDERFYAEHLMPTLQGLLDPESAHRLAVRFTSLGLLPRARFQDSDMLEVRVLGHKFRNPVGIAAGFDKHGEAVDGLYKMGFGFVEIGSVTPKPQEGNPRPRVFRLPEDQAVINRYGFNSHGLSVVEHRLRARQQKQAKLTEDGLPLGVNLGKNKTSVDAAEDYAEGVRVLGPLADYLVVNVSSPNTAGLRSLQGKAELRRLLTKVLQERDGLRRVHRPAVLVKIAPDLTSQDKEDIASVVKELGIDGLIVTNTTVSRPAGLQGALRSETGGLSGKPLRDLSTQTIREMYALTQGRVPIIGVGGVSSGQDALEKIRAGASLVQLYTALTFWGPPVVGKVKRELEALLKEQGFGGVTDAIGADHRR

Trypanosoma cruzi = assay: Antitrypanosomal activity against Trypanosoma cruzi Tulahuen amastigotes expressing beta-galactosidase infected in mouse NIH3T3 cells after 6 days; assay type: functional, organism-based; conditions: NIH3T3, 144 h
[7] = Cytotoxicity against mouse primary peritoneal macrophages; assay type: cell-based, Peritoneal macrophage
Trypanosoma brucei = assay: Antitrypanosomal activity against Trypanosoma brucei Lister 427 bloodstream form after 48 hrs by CellTiter-Glo luminescent cell viability assay; assay type: functional, organism-based; conditions: Lister 427, 48 h
Leishmania donovani = assay: Antileishmanial activity against Leishmania donovani MHOM/SD/62/1S-CL2D axenic amastigote after 48 hrs by CellTiter-Glo luminescent cell viability assay; assay type: functional, organism-based
[8] = Cytotoxicity against mouse NIH/3T3 cells after 5 days by CellTiter-Glo luminescent cell viability assay; assay type: cell-based, NIH3T3
[9] = Lipophilicity, log D of the compound at pH 7.4 by shake flask method; assay type: physicochemical; conditions: buffer
[10] = Oral bioavailability in mouse at 20 mg/kg administered as single dose; assay type: ADME, organism-based; conditions: in vivo
[11] = biological target: Fatty acid-binding protein, adipocyte (Homo sapiens, UniProt P15090); assay: Binding affinity to recombinant FABP4 (unknown origin) expressed in Escherichia coli by sypro orange dye-based TdF assay
Fatty acid-binding protein, adipocyte, sequence (P15090 whole entry): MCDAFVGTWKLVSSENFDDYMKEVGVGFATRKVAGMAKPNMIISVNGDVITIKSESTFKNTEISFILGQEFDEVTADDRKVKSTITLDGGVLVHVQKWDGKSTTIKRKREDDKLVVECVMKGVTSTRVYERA

[12] = Dissociation constant, pKa of compound; assay type: physicochemical

SMILES: Cc1cc(Nc2ccc(S(F)(F)(F)(F)F)cc2)n2nc(C(C)(F)F)nc2n1 [DSM-265]
PPB [1]: 90.4% | solubility [2]: 70 to 140 µM (≈ 29.1 to 58.1 µg/mL) | microsomal CLint [3]: < 5 µL/min/mg | microsomal CLint [4]: 10.1 µL/min/mg | IC50 [5]: 33 nM

SMILES: CC(C)OC(=O)Nc1cnc2nc(-c3cc(NC(=O)c4ccco4)ccc3Cl)nn2c1
EC50 (Trypanosoma cruzi): 55 nM | CC50 [7]: 14000 nM | EC50 (Trypanosoma brucei): 79 nM | EC50 (Leishmania donovani): 350 nM | CC50 at 120 h [8]: 9000 nM

SMILES: Cc1cc(Nc2ccc(C(F)(F)F)nc2)n2nc(C(C)(F)F)nc2n1
fraction unbound ([1]; read-out: PPB): 0.5 | solubility [2]: > 100 µM | microsomal CLint [4]: 5.1 µL/min/mg | logD [9]: 2.5 | IC50 [6]: > 100000 nM | IC50 [5]: 14 nM

SMILES: O=C(Nc1ccc(Cl)c(-c2nc3ncccc3o2)c1)c1ccco1
EC50 (Trypanosoma cruzi): 75 nM | CC50 [7]: > 50000 nM | EC50 (Trypanosoma brucei): 150000 nM | EC50 (Leishmania donovani): 7300 nM

SMILES: Cc1cc(Nc2cc(F)c(C(F)(F)F)c(F)c2)n2ncnc2n1
solubility [2]: 9 to 18 µM (≈ 2.96 to 5.93 µg/mL) | microsomal CLint [3]: < 5 µL/min/mg | microsomal CLint [4]: < 6 µL/min/mg | IC50 [6]: > 30000 nM | IC50 [5]: 190 nM

SMILES: Cc1nc(C)c(C(=O)Nc2ccc(F)c(-c3nc4ncc(-c5ccccn5)cn4n3)c2)o1
EC50 (Trypanosoma brucei): 70 nM | bioavailability [10]: < 34%

Further lines, with some results ahead:

solubility [2]: 45 to 90 µM (≈ 12.4 to 24.8 µg/mL) | IC50 [6]: > 200000 nM
SMILES: Cc1cc(Nc2ccc3ccccc3c2)n2ncnc2n1

EC50 (Trypanosoma cruzi): 16 nM | EC50 (Trypanosoma brucei): 22 nM | bioavailability [10]: < 34%
SMILES: Cc1nc(C)c(C(=O)Nc2ccc(F)c(-c3nc4ncc(-c5ccccc5)cn4n3)c2)o1
EC50 (Leishmania donovani): 71 nM

Kd [11]: 860 nM
SMILES: COc1ccc(Cl)cc1NCc1cc(=O)n2nc(-c3ccccc3)nc2[nH]1

pKa [12]: 4.6 | Kd [11]: 10 nM
SMILES: Cc1c(Cl)cccc1NCc1cc(=O)n2nc(-c3ccccc3)nc2[nH]1

Kd [11]: 20 nM
SMILES: O=c1cc(CNc2cccc(Cl)c2C2CC2)[nH]c2nc(-c3ccccc3)nn12
